From patent US9421209B2, “Kinase modulators” (Rhizen Pharmaceuticals SA, priority 2009, dated 2016)
Like-named read-outs stand apart in the source and are kept apart here.

Assays:
P110α = P110α (Homo sapiens, UniProt P42336); assay: Fluorescent (HTRF) determination of PI3K enzyme activity, α isoform; assay type: biochemical
Excerpt: (§1) Assay 1: Fluorescent determination of PI3Kinase Kinase enzyme activity
(§2) Phosphoinositide 3 kinases (PI3K) belong to a class of lipid kinases that play a critical role in the regulation of several key cellular processes. The PI3K are capable of phosphorylating the 3-hydroxy position of phosphoinositols thereby generating second messengers involved in downstream signalling events. The homogenous time resolved fluorescence (HTRF) assay allows detection of 3,4,5-triphosphate (PIP3) formed as a result of phosphorylation of phosphotidylinositol 4,5-biphosphate (PIP2) by PI3K isoforms such as α, β, γ or δ.
(§3) PI3K isoform activity for α, β, γ or δ was determined using a PI3K human HTRF™ Assay Kit (Millipore, Billerica, Mass.) with modifications. All incubations were carried out at room temperature. Briefly, 0.5 μl of 40× inhibitor (in 100% DMSO) or 100% DMSO were added to each well of a 384-well black plate (Greiner Bio-One, Monroe, N.C.) containing 14.5 μl 1× reaction buffer/PIP2 (10 mM MgCl2, 5 mM DTT, 1.38 μM PIP2) mix with or without enzyme and incubated for 10 min. After the initial incubation, 5 μl/well of 400 μM ATP was added and incubated for an additional 30 minutes. Reaction was terminated by adding 5 μl/well stop solution (Millipore, Billerica, Mass.). Five microliters of detection mix (Millipore, Billerica, Mass.) were then added to each well and was incubated for 6-18 h in the dark. HRTF ratio was measured on a microplate reader (BMG Labtech., Germany) at an excitation wavelength of 337 nm and emission wavelengths of 665 and 620 nm with an integration time of […]. Data were analyzed using Graphpad Prism (Graphpad software; San Diego Calif.) for IC50 determination. Percent inhibition was calculated based on the values for the blank and enzyme controls. The results are provided below in Table 2 & 3.

P110β = P110β (Homo sapiens, UniProt P42338); assay: Fluorescent (HTRF) determination of PI3K enzyme activity, β isoform; assay type: biochemical
Excerpt: as §1, §2, §3

P110 δ/Pi3K δ = P110 δ/Pi3K δ (Homo sapiens, UniProt O00329); assay: Fluorescent (HTRF) determination of PI3K enzyme activity, δ isoform; assay type: biochemical; parameters: inhibition: dose or concentration left out as unconfirmed
In short: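 HTRF kit detecting PIP3 formed from PIP2 by human PI3Kδ, at room temperature. Reaction started with 400 μM ATP (addition concentration) for 30 min, then stopped, and detection mix incubated 6–18 h in the dark. Percent inhibition taken against blank and enzyme controls, and IC50 fitted.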

[1] = read-out: P110 δ/Pi3K δ IC 50 nM
[2] = read-out: P110 δ/ Pi3K δ IC 50 nM

Chain of P110β (P42338 whole entry, canonical isoform): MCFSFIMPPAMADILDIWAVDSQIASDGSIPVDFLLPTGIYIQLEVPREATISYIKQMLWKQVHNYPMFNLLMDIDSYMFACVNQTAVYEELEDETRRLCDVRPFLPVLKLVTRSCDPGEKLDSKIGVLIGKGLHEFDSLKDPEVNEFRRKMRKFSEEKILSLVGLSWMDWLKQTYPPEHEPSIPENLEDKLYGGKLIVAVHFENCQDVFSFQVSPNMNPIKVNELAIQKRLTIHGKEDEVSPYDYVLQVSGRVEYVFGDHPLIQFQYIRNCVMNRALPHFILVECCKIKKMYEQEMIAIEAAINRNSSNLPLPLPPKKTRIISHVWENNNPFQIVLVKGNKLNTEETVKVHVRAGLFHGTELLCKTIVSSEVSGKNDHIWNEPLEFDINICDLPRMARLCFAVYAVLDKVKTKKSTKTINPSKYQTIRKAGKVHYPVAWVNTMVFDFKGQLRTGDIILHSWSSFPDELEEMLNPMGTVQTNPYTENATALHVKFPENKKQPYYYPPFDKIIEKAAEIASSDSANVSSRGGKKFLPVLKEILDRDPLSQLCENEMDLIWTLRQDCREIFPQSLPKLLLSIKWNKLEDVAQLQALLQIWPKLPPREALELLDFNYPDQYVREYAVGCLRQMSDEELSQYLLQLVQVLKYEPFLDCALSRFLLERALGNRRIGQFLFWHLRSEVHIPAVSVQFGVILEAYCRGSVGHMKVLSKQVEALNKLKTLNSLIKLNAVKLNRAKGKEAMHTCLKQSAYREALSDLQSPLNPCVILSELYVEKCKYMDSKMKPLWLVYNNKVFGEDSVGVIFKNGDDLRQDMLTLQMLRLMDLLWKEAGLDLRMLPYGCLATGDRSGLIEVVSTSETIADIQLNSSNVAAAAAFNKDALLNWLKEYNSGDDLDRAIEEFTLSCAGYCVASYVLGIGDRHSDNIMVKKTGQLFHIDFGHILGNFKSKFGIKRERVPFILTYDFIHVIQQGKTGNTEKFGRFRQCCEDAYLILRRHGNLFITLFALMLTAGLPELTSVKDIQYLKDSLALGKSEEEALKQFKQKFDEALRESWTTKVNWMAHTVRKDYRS
Chain of P110β (P27986 whole entry partner, canonical isoform): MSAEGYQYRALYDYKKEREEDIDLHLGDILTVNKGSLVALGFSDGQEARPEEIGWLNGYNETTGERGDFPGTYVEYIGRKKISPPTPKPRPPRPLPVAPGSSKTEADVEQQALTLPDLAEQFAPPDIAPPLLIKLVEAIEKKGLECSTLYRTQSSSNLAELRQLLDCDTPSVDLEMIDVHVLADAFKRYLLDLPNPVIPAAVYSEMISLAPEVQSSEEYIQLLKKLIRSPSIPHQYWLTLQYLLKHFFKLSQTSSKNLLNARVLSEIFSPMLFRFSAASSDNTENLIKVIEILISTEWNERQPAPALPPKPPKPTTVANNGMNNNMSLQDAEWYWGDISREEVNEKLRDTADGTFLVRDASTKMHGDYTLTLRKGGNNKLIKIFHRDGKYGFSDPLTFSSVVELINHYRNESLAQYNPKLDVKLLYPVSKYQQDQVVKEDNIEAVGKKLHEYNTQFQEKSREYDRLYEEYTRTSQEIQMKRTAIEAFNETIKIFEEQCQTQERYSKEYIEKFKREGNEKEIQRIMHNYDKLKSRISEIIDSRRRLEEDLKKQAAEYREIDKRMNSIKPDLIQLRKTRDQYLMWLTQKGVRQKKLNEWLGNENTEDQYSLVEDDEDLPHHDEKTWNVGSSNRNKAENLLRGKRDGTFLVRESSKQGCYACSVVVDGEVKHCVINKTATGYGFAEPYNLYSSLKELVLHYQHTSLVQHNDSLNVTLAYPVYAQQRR
Chain of P110 δ/Pi3K δ (O00329 whole entry, canonical isoform): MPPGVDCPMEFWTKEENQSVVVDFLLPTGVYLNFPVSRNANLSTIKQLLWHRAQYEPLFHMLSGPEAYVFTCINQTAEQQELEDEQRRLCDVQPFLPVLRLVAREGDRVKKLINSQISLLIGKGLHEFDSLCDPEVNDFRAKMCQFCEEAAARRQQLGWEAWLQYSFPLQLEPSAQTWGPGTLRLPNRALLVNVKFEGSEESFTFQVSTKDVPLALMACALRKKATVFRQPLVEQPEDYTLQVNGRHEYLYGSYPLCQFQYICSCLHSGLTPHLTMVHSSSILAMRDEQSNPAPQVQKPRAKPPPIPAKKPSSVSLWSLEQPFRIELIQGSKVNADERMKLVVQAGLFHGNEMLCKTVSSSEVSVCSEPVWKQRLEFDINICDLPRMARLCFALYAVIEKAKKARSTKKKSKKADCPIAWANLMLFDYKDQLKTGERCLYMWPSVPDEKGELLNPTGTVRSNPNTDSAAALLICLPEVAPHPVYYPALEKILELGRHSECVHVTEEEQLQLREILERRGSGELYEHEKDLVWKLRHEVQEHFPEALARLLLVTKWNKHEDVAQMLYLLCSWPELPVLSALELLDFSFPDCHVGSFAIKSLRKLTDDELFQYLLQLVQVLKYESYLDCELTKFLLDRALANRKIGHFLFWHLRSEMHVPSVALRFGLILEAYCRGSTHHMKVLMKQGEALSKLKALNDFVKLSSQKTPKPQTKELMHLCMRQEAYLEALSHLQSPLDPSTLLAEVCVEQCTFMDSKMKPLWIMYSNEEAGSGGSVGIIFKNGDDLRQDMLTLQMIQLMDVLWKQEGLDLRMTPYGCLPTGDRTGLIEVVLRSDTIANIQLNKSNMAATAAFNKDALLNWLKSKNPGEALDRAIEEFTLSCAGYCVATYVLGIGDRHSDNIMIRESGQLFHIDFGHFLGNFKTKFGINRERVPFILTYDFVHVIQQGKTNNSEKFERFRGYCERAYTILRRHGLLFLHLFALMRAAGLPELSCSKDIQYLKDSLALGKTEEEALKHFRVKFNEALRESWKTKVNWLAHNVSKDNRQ
Chain of P110 δ/Pi3K δ (P27986 whole entry partner, canonical isoform): as the sequence (P27986 whole entry partner, canonical isoform) above
Chain of P110α (P42336 whole entry, canonical isoform): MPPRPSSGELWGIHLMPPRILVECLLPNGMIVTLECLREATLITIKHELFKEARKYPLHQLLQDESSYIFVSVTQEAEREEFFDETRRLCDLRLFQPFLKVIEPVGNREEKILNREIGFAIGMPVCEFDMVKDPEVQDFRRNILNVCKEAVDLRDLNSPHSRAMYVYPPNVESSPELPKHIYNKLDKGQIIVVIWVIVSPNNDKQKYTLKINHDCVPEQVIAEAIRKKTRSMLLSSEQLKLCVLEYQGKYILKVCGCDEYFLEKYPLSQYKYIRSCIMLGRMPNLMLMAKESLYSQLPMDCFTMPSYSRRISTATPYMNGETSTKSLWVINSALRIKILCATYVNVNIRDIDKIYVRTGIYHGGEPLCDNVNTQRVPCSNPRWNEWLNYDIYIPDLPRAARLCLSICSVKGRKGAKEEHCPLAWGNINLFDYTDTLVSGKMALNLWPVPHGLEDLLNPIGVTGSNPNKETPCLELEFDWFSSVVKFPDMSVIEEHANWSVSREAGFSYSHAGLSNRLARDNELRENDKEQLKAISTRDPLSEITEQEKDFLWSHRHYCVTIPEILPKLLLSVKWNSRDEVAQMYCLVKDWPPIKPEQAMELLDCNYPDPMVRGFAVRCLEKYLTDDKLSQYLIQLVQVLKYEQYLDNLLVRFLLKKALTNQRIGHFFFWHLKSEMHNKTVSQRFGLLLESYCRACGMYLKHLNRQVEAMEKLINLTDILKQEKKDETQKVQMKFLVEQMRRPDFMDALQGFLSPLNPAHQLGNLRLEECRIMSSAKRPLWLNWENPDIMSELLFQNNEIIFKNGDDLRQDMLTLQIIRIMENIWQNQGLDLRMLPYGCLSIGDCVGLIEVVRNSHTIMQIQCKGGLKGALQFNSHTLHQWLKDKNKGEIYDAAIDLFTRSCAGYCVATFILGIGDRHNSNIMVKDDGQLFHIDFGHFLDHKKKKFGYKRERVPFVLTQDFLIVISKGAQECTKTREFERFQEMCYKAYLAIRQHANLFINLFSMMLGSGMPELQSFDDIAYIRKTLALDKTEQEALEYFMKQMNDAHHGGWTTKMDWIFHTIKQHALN
Chain of P110α (P27986 whole entry partner, canonical isoform): as the sequence (P27986 whole entry partner, canonical isoform) above

Row | Structure (SMILES) | inhibition at 1 µM (P110α) | inhibition at 1 µM (P110β) | melting point | inhibition at 1 µM (P110 δ/Pi3K δ) | IC50 (P110 δ/Pi3K δ; [1]) | inhibition (P110 δ/Pi3K δ) | IC50 (P110 δ/Pi3K δ; [2])
1 | Nc1ncnc2c1ncn2Cc1oc2ccc(Br)cc2c(=O)c1-c1ccccc1 [Example 1, 2-[(6-Amino-9H-purin-9-yl)methyl]-6-bromo-3-phenyl-4H-chromen-4-one] | < 25% | < 25% | 207 to 209 °C | < 50% | < 250 nM |  | 
2 | O=c1c(-c2ccccc2)c(Cn2cnc3c(Cl)ncnc32)oc2ccc(Br)cc12 [Example 10, 6-Bromo-2-[(6-chloro-9H-purin-9-yl)methyl]-3-phenyl-4H-chromen-4-one] | < 25% | < 25% | 234 to 236 °C |  |  |  | 
3 | CC(c1oc2ccccc2c(=O)c1-c1ccccc1)n1cnc2c(N)ncnc21 (stereo not drawn) [Example 23, 2-(1-(6-Amino-9H-purin-9-yl)ethyl)-3-phenyl-4H-chromen-4-one] | < 25% | < 25% | 254 to 257 °C | 50 to 100% | < 250 nM |  | 
4 | C[C@H](Nc1ncnc2[nH]cnc12)c1oc2ccc(F)cc2c(=O)c1-c1ccccc1 [Example 57, (S)-2-(1-(9H-purin-6-ylamino)ethyl)-6-fluoro-3-phenyl-4H-chromen-4-one] | < 25% | 25 to 50% | 196 to 198 °C | 50 to 100% | < 250 nM |  | 
5 | COc1ccc(-c2nn(C(C)c3oc4ccccc4c(=O)c3-c3cccc(F)c3)c3ncnc(N)c23)cc1F (stereo not drawn) [Example 84, 2-(1-(4-amino-3-(3-fluoro-4-methoxyphenyl)-1H-pyrazolo[3,4-d]pyrimidin-1-yl)ethyl)-3-(3-fluorophenyl)-4H-chromen-4-one] | < 25% | < 25% | 222 to 224 °C |  |  | 50 to 100% | < 250 nM
6 | COc1cc(F)cc(-c2nn(Cc3oc4ccc(F)cc4c(=O)c3-c3cccc(F)c3)c3ncnc(N)c23)c1 [Example 120, 2-((4-amino-3-(3-fluoro-5-methoxyphenyl)-1H-pyrazolo[3,4-d]pyrimidin-1-yl)methyl)-6-fluoro-3-(3-fluorophenyl)-4H-chromen-4-one] | < 25% | < 25% |  |  |  |  | 
7 | CC(c1oc2ccccc2c(=O)c1-c1cccc(F)c1)n1nc(-c2ccc3c(c2)OCCCO3)c2c(N)ncnc21 (stereo not drawn) [Example 136, 2-(1-(4-amino-3-(3,4-dihydro-2H-benzo[b][1,4]dioxepin-7-yl)-1H-pyrazolo[3,4-d]pyrimidin-1-yl)ethyl)-3-(3-fluorophenyl)-4H-chromen-4-one] |  | 25 to 50% | 234 to 237 °C |  |  | < 50% | 
8 | CC(c1oc2ccccc2c(=O)c1-c1cccc(F)c1)n1nc(-c2ccc(N3CCOCC3)nc2)c2c(N)ncnc21 (stereo not drawn) [Example 137, 2-(1-(4-amino-3-(6-morpholinopyridin-3-yl)-1H-pyrazolo[3,4-d]pyrimidin-1-yl)ethyl)-3-(3-fluorophenyl)-4H-chromen-4-one] |  | 25 to 50% | 269 to 271 °C |  |  | < 50% | 
9 | CC(C)Oc1ccc(-c2nn(C(C)c3oc4ccccc4c(=O)c3-c3cccc(F)c3)c3ncnc(N)c23)cc1 (stereo not drawn) [Example 144, 2-(1-(4-amino-3-(4-isopropoxyphenyl)-1H-pyrazolo[3,4-d]pyrimidin-1-yl)ethyl)-3-(3-fluorophenyl)-4H-chromen-4-one] |  | 50 to 100% | 224 to 226 °C |  |  | 50 to 100% | < 250 nM
10 | CC(c1oc2ccccc2c(=O)c1-c1cccc(F)c1)n1nc(-c2ccc(OC(F)(F)F)cc2)c2c(N)ncnc21 (stereo not drawn) [Example 145, 2-(1-(4-amino-3-(4-(trifluoromethoxy)phenyl)-1H-pyrazolo[3,4-d]pyrimidin-1-yl)ethyl)-3-(3-fluorophenyl)-4H-chromen-4-one] |  | 25 to 50% | 224 to 226 °C |  |  | < 50% | 
11 | CC(=O)c1ccc(-c2nn(C(C)c3oc4ccccc4c(=O)c3-c3cccc(F)c3)c3ncnc(N)c23)cc1 (stereo not drawn) [Example 146, 2-(1-(3-(4-acetylphenyl)-4-amino-1H-pyrazolo[3,4-d]pyrimidin-1-yl)ethyl)-3-(3-fluorophenyl)-4H-chromen-4-one] |  | < 25% | 218 to 221 °C |  |  | 50 to 100% | 
12 | CC(c1oc2ccccc2c(=O)c1-c1cccc(F)c1)n1nc(-c2ccc(OCc3ccccc3)cc2)c2c(N)ncnc21 (stereo not drawn) [Example 147, 2-(1-(4-amino-3-(4-(benzyloxy)phenyl)-1H-pyrazolo[3,4-d]pyrimidin-1-yl)ethyl)-3-(3-fluorophenyl)-4H-chromen-4-one] |  | 25 to 50% | 176 to 178 °C |  |  | < 50% | 
13 | CC(c1oc2ccccc2c(=O)c1-c1cccc(F)c1)n1nc(-c2ccc(N(C)C)cc2)c2c(N)ncnc21 (stereo not drawn) [Example 148, 2-(1-(4-amino-3-(4-(dimethylamino)phenyl)-1H-pyrazolo[3,4-d]pyrimidin-1-yl)ethyl)-3-(3-fluorophenyl)-4H-chromen-4-one] |  | 50 to 100% | 214 to 217 °C |  |  | 50 to 100% | 
14 | CC(c1oc2ccccc2c(=O)c1-c1cccc(F)c1)n1nc(-c2ccc(S(C)(=O)=O)cc2)c2c(N)ncnc21 (stereo not drawn) [Example 149, 2-(1-(4-amino-3-(4-(methylsulfonyl)phenyl)-1H-pyrazolo[3,4-d]pyrimidin-1-yl)ethyl)-3-(3-fluorophenyl)-4H-chromen-4-one] |  | 25 to 50% | 259 to 262 °C |  |  | < 50% | 
15 | CCOc1cccc(-c2nn(C(C)c3oc4ccccc4c(=O)c3-c3cccc(F)c3)c3ncnc(N)c23)c1 (stereo not drawn) [Example 150, 2-(1-(4-amino-3-(3-ethoxyphenyl)-1H-pyrazolo[3,4-d]pyrimidin-1-yl)ethyl)-3-(3-fluorophenyl)-4H-chromen-4-one] |  | 25 to 50% | 162 to 165 °C |  |  | < 50% | 
16 | CC(c1oc2ccccc2c(=O)c1-c1cccc(F)c1)n1nc(-c2cc3ccccc3s2)c2c(N)ncnc21 (stereo not drawn) [Example 151, 2-(1-(4-amino-3-(benzo[b]thiophen-2-yl)-1H-pyrazolo[3,4-d]pyrimidin-1-yl)ethyl)-3-(3-fluorophenyl)-4H-chromen-4-one] |  | 25 to 50% | 242 to 245 °C |  |  | 50 to 100% | < 250 nM
17 | CC(c1oc2ccccc2c(=O)c1-c1cccc(F)c1)n1nc(-c2ccc(Cl)s2)c2c(N)ncnc21 (stereo not drawn) [Example 152, 2-(1-(4-amino-3-(5-chlorothiophen-2-yl)-1H-pyrazolo[3,4-d]pyrimidin-1-yl)ethyl)-3-(3-fluorophenyl)-4H-chromen-4-one] |  | < 25% | 226 to 229 °C |  |  | < 50% | 
18 | Cc1noc(C)c1-c1nn(C(C)c2oc3ccccc3c(=O)c2-c2cccc(F)c2)c2ncnc(N)c12 (stereo not drawn) [Example 153, 2-(1-(4-amino-3-(3,5-dimethylisoxazol-4-yl)-1H-pyrazolo[3,4-d]pyrimidin-1-yl)ethyl)-3-(3-fluorophenyl)-4H-chromen-4-one] |  | < 25% | 218 to 222 °C |  |  | < 50% | 
19 | CCCOc1cccc(-c2nn(C(C)c3oc4ccccc4c(=O)c3-c3cccc(F)c3)c3ncnc(N)c23)c1 (stereo not drawn) [Example 154, 2-(1-(4-amino-3-(3-propoxyphenyl)-1H-pyrazolo[3,4-d]pyrimidin-1-yl)ethyl)-3-(3-fluorophenyl)-4H-chromen-4-one] |  | < 25% | 178 to 182 °C |  |  | < 50% | 
20 | CC(c1oc2ccccc2c(=O)c1-c1cccc(F)c1)n1nc(-c2ccco2)c2c(N)ncnc21 (stereo not drawn) [Example 155, 2-(1-(4-amino-3-(furan-2-yl)-1H-pyrazolo[3,4-d]pyrimidin-1-yl)ethyl)-3-(3-fluorophenyl)-4H-chromen-4-one] |  | < 25% | 234 to 236 °C |  |  | 50 to 100% | 
21 | CCOc1ccc(-c2nn(C(C)c3oc4ccccc4c(=O)c3-c3cccc(F)c3)c3ncnc(N)c23)cc1 (stereo not drawn) [Example 156, 2-(1-(4-amino-3-(4-ethoxyphenyl)-1H-pyrazolo[3,4-d]pyrimidin-1-yl)ethyl)-3-(3-fluorophenyl)-4H-chromen-4-one] |  | 25 to 50% | 229 to 232 °C |  |  | < 50% | 
